According to patent publication US10457666B2, “Stable crystal form of tipiracil hydrochloride and crystallization method for the same” (TAIHO PHARMACEUTICAL CO., LTD., priority 2013, dated 2019):
Where “and” joins values, the source holds several entries; their conditions need not be identical. Equal values may be shown once.

Legend:
[1] = Stability test (storage stability after preservation); assay type: physicochemical; details: preservation at 40° C. for six months; for change in powder X-ray diffraction pattern after preservation (storage stability): hydrochloride
Protocol: Crystal I, Crystal III, and Crystal II of tipiracil hydrochloride obtained in accordance with Example 1, Example 2, and Reference Example 1 respectively were tested for storage stability after preservation at a temperature of 40° C. for six months.

[2] = Test for measurement of electric charge amount by air transfer; assay type: physicochemical; details: for Amount of electric charge per unit mass, average value: average of 3 measurements; for Amount of electric charge per unit mass, average value / Amount of electric charge / Amount of electric charge per unit mass: air transfer 130 L/min, SUS electrifying tube, hydrochloride; for Amount of electric charge / Amount of electric charge per unit mass: individual measurements No. 1-3; for polarity of charge: relative to SUS membrane
Protocol: Electric charge amounts of Crystal I and Crystal III obtained in accordance with Example 1 and Example 2 respectively were measured by air transfer. Crystal I or Crystal III was put in a powder supply part of an electrifying tube (made of SUS, 24.6×500 mm), and was left for 10 minutes. The sample was transferred by air at a flow rate of 130 L/min and the electric charge amount was calculated from the current value at that time obtained from the electrifying tube. ? =−∫0^tIdt Q: Amount of electric charge [C] I: Current generated during measurement [A] t: Measuring time […]
The measurement was performed 5 times, of which 3 times that gave stable results were adopted. The average of the values of the 3 times was regarded as the measured value.

SMILES | amounts of analogous substances after preservation [1] | change in powder X-ray diffraction pattern after preservation (storage stability) [1] | Amount of electric charge per unit mass, average value [2] | Amount of electric charge [2] | Amount of electric charge per unit mass [2] | polarity of charge [2] | charge relative to Crystal I ([2]; comparison of Table 2 and Table 3)
Cl.N=C1CCCN1Cc1[nH]c(=O)[nH]c(=O)c1Cl [Crystal I, 5-chloro-6-(2-iminopyrrolidin-1-yl)methyl-2,4(1H,3H)-pyrimidinedione hydrochloride] | small and not increased | no change | 1.0 × 10^−7 C/g | 5.3 × 10^−8 C and 5.0 × 10^−8 C | 1.1 × 10^−7 C/g and 9.7 × 10^−8 C/g and 9.8 × 10^−8 C/g | (positively-charged | 
Cl.N=C1CCCN1Cc1[nH]c(=O)[nH]c(=O)c1Cl [Crystal II, 5-chloro-6-(2-iminopyrrolidin-1-yl)methyl-2,4(1H,3H)-pyrimidinedione hydrochloride] |  | not the same |  |  |  |  | 
Cl.N=C1CCCN1Cc1[nH]c(=O)[nH]c(=O)c1Cl [Crystal III, 5-chloro-6-(2-iminopyrrolidin-1-yl)methyl-2,4(1H,3H)-pyrimidinedione hydrochloride] | small and not increased | no change | 3.5 × 10^−7 C/g | 2.0 × 10^−7 C and 2.1 × 10^−7 C and 1.8 × 10^−7 C | 3.2 × 10^−7 C/g (2×) and 4.2 × 10^−7 C/g | (positively-charged | three times as much charge as Crystal I
